The target in test [1] is T1, NR1/NR2B ionotropic receptors encoded by the human GRIN1/GRIN2B genes, expressed in HEK293 cells (Homo sapiens, UniProt Q05586+Q13224). The experiment in a line: Syncropatch automated patch clamp on NR1/NR2B receptors in HEK293 cells, agonist mode. In kind it is cell-based. The following applies: for EC50 / NR1/NR2B PCA agonist EMAX: plus 50 μM glycine; for NR1/NR2B PCA agonist EMAX: relative to current produced by 100 μM glutamate (EMAX set as 100%). Here is the method: (§1) The following patch clamp study investigates these effects on NR1/NR2B ionotropic receptors encoded by the human GRIN1/GRIN2B genes, expressed in HEK293 cells. Compounds were evaluated for functional effects on these ion channel receptors.
(§2) The assay was carried out using an HTS electrophysiology-based approach with the Syncropatch 384pe automated patch clamp system (Nanion), while using HEK293 cells that have been transfected with human GRIN1/GRIN2B genes to express NR1/NR2B ionotropic receptors
(§3) HEK293 cells were transfected with the appropriate ion channel or receptor cDNA(s) encoding NR1 and NR2B. Stable transfectants were selected using the G418 and Zeocin-resistance genes incorporated into the expression plasmid. Selection pressure was maintained with G418 and Zeocin in the culture medium. Cells were cultured in Dulbecco's Modified Eagle Medium/Nutrient Mixture F-12 (D-MEM/F-12) supplemented with 10% fetal bovine serum, 100 U/ml penicillin G sodium, 100 ug/mL streptomycin sulfate, 100 ug/mL Zeocin, 5 ug/mL blasticidin and 500 ug/mL G418.
(§4) Before testing, cells in culture dishes were washed twice with DPBS solution. Immediately before testing, the cells were washed in HB-PS containing 10 mM CaCl2 to improve sealing.
(§5) Compounds were evaluated in 8-point concentration-response format (4 replicate wells/concentration). The compound formulations were loaded in e.g. a 384-well compound plate and placed in the Syncropatch plate well.
(§6) The agonist positive control (L-glutamate) was applied at eight (8) concentrations (0.03-100 μM; n=4, where n=the number of replicates) together with 50 μM glycine.
(§7) 2× concentration of test compounds and antagonist control was pre-applied 2 minutes before application of L-glutamate/glycine mixed with 1× concentration of test compound. Glutamate and glycine was applied to naive cells (n=4, where n=the number of replicate wells/concentration) via a multi-channel pipettor.
(§8) • a) Intracellular solution (mM): 50 mM CsCl, 90 mM CsF, 2 mM MgCl2, 5 mM EGTA, 10 mM HEPES. Adjust to pH 7.2 with CsOH. This solution was prepared in batches and stored refrigerated.
(§9) • a) Extracellular buffer was loaded into the multi holes plate wells (40 μL per well).
(§10) Activation was calculated in two ways based on the following measurements: • 1. peak current amplitudes, and • 2. current amplitude 4-5 seconds after agonist addition.
(§11) Data acquisition was performed via the […] and data was analyzed using Microsoft Excel™ (Microsoft™ Corp., Redmond, WA). Concentration-response data was filled to a Hill equation of the following form: […]
(§12) where Base is the response in the absence of test article (vehicle treatment), Max is the maximum response at high concentrations, xhalf is the EC50, or IC50, the concentration of test compound producing either half-maximal activation or inhibition, and rate is the Hill coefficient. Nonlinear least squares fits were made assuming a simple binding model. If appropriate, fits were weighted by the standard deviation. No assumptions about the fit parameters were made; the fit parameters were determined by algorithm. Raw reduced data was analyzed using Microsoft Excel Office 365 ProPlus (Microsoft™ Corp., Redmond, WA) and XLfit (Excel addon, Copyright© IDBS 2016).
as §1
HEK293 cells were transfected with the appropriate ion channel or receptor cDNA(s) encoding NR1 and NR2B. Stable transfectants were selected using the G418 and Zeocin-resistance genes incorporated into the expression plasmid. Selection pressure was maintained with G418 and Zeocin in the culture medium.
(Patch clamp records ionic current or voltage across a cell membrane.)

Test [2] deals with T1, NR1/NR2B ionotropic receptors encoded by the human GRIN1/GRIN2B genes, expressed in HEK293 cells. Description: Syncropatch automated patch clamp on NR1/NR2B receptors in HEK293 cells, antagonist mode (co-applied with 2 μM glutamate and 50 μM glycine). Type of test: cell-based. The following applies: for inhibits glutamate and glycine activation of NR1/NR2B receptors in vitro: PCA and SSC measurements, conclusion in words; for NR1/NR2B PCA antagonist HillSlope: co-applied with 2 μM glutamate and 50 μM glycine. Here is the method:
as §1, §2, §3, §4, §5, §6, §7, §8, §9, §10, §11, §12
Antagonist activity of test articles was examined after stimulation of receptors with 2 μM glutamate and 50 μM glycine in the presence of increasing concentrations of test articles. Two measurements were performed, first was a peak current amplitude and second was a steady state current between 4th and 6th seconds following agonist application.
as §1
HEK293 cells were transfected with the appropriate ion channel or receptor cDNA(s) encoding NR1 and NR2B.

Test [3] has as its target NR1C and NR2B receptors over NR1C+NR2A receptors (Homo sapiens, UniProt Q05586+Q13224). The following applies: cited from earlier work.
The subject of test [4] is cortical damage in a model of permanent focal ischemia. As to conditions: cited from earlier work.
Where [5] appears, read: steady state current amplitude (SSC) table.

Results on eight compounds are retold here after patent publication US20250009730A1 (priority 2021, published 2025).

Molecules are shown by their SMILES. Where a name gives a salt, the structure may show the parent alone. Read-outs that look alike come from different tables or passages of the source.

T1 sequence (Q13224 27-1484, other chains not shown): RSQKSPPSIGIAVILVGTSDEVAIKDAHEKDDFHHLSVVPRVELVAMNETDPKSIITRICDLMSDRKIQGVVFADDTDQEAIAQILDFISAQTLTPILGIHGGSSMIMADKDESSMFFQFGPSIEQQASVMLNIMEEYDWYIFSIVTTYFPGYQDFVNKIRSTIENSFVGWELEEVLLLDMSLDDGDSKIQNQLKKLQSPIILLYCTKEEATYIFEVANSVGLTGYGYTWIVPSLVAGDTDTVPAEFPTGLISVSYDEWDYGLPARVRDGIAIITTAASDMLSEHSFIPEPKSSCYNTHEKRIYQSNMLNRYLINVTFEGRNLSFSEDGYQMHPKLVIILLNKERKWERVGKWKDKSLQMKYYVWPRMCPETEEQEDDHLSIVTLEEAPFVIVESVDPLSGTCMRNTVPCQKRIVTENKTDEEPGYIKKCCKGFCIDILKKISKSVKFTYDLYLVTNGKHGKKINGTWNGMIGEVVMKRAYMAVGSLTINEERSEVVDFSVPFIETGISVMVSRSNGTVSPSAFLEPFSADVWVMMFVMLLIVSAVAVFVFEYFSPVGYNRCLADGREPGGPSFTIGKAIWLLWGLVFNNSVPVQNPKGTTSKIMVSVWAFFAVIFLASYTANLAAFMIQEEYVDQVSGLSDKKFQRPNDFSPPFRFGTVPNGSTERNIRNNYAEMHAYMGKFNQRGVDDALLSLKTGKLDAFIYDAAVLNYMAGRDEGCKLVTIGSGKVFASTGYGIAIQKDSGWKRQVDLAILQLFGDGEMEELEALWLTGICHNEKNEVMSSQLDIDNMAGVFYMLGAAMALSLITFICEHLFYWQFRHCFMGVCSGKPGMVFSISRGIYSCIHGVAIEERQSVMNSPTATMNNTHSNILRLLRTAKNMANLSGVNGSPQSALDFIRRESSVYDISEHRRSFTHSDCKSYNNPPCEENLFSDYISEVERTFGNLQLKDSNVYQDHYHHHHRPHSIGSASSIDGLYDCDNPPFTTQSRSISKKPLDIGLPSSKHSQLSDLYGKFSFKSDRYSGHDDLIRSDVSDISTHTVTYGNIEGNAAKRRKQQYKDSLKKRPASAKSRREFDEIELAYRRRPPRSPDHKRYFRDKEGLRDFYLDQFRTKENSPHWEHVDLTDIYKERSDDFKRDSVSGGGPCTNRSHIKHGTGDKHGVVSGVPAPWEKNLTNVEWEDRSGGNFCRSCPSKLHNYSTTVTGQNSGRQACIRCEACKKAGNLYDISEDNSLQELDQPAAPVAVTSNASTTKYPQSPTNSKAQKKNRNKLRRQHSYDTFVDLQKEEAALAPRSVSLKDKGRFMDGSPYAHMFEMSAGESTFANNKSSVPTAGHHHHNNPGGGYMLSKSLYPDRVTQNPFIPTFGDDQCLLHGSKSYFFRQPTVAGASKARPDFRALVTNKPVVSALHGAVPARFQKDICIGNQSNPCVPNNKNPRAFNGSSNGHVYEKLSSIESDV
Sequence of NR1C and NR2B receptors over NR1C+NR2A receptors (Q13224 27-1484, other chains not shown): as above

On to `N[C@@H](CCC(=O)O)C(=O)[O-].O.[Na+]` [Glutamate, L-Glutamic acid monosodium salt monohydrate], for which, in test [1] (peak current amplitude (PCA)), the “NR1/NR2B PCA agonist HillSlope” value is recorded as −0.86, the EC50 stood at 3.03 µM and the “NR1/NR2B PCA agonist EMAX” value was found to be 100.00%. In addition, in test [1] (setting [5]), the “NR1/NR2B PCA agonist HillSlope” value was −0.95 and the “NR1/NR2B PCA agonist EMAX” value stood at 100.00%. Moreover, the EC50 in test [1] (steady state current amplitude (SSC) table, read-out: NR1/NR2B PCA agonist EC50) was 0.82 µM.
For the compound `CC(C(O)c1ccc(O)cc1)N1CCC(Cc2ccccc2)CC1.O=C(O)c1ccccc1` (centres unmarked) [Ifenprodil benzoate], the “inhibits glutamate and glycine activation of NR1/NR2B receptors in vitro” value in test [2] is on record as “comparable to ifenprodil tartrate”. For the same compound, the “NR1/NR2B PCA antagonist HillSlope” value in test [2] (peak current amplitude (PCA)) was found to be 1.39; in test [2] (setting [5]), 1.25.
Take `CC(C(O)c1ccc(O)cc1)N1CCC(Cc2ccccc2)CC1` (centres unmarked) [Ifenprodil fumarate]: the “NR1/NR2B PCA antagonist HillSlope” value is reported as 0.79 in test [2] (peak current amplitude (PCA), listed as fumarate) and 0.61 in test [2] (steady state current amplitude (SSC) table, listed as fumarate).
On to `CC(C(O)c1ccc(O)cc1)N1CCC(Cc2ccccc2)CC1` (centres unmarked) [Ifenprodil nicotinate], for which the “NR1/NR2B PCA antagonist HillSlope” value in test [2] (peak current amplitude (PCA), listed as nicotinate) was 0.71; in test [2] (steady state current amplitude (SSC) table, listed as nicotinate) it was 0.71.
Take `C[C@@H]([C@H](O)c1ccc(O)cc1)N1CCC(Cc2ccccc2)CC1` [Ifenprodil oleate]: in test [2], the “inhibits glutamate and glycine activation of NR1/NR2B receptors in vitro” value is reported as “comparable to ifenprodil tartrate”. For the same compound, the “NR1/NR2B PCA antagonist HillSlope” value in test [2] (peak current amplitude (PCA)) turned out to be 0.79; in test [2] (setting [5]), 0.86.
As to `CC(C(O)c1ccc(O)cc1)N1CCC(Cc2ccccc2)CC1` (centres unmarked) [Ifenprodil pamoate], in test [2], the “inhibits glutamate and glycine activation of NR1/NR2B receptors in vitro” value is recorded as “comparable to ifenprodil tartrate”. The “NR1/NR2B PCA antagonist HillSlope” value in test [2] (peak current amplitude (PCA), listed as pamoate) came out at 1.59; in test [2] (steady state current amplitude (SSC) table, listed as pamoate), 0.77.
Turning to `CC12CC3CC(C)(C1)CC(N)(C3)C2` [Memantine, memantine chloride, reference compound], the “NR1/NR2B PCA antagonist HillSlope” value in test [2] (peak current amplitude (PCA)) turned out to be 1.12; in test [2] (setting [5]), 1.08.
On to `Cc1ccc(CC2(O)CCN(CCOc3ccc(O)cc3)CC2)cc1` [Ro 63-1908], for which the “selectivity for the NR1C and NR2B receptors over NR1C+NR2A receptors” value in test [3] is 20,000 fold. The “neuroprotective effect against cortical damage” value in test [4] is recorded as “dose-related neuroprotective effect”.
